# Measured values: patent publication US20110034472A1, “Novel Compounds for Treatment of Cancer and Disorders Associated With Angiogenesis Function” (UNIVERSITY OF SOUTHERN CALIFORNIA, priority 2004, published 2011)
# “Also recorded” adds a separate entry of the source. Counter-ions that a name gives are not always drawn. Like-named read-outs stand apart in the source and are kept apart here.
# How the values were obtained:
# MDA-MB-435 cells [1] = experiment: MTT assay, continuous drug exposure for 48 hours (Table 3); assay type: cell-based, human; conditions: for IC80: MDA-MB-435, read-out: CC80
# [2] = drugs with known mechanisms of cell cycle regulation; cited from earlier work
# [3] = tested on: PC3 prostate cancer cells; experiment: MTT cytotoxicity assay, PC3; assay type: cell-based; conditions: Homo sapiens; PC3; 72 hours continuous exposure; read-out: IC50 values (mean ± SD)
# Method: (§1) The sensitivity of a panel of seven human cancer cell lines to SC144 was assessed by MTT-assay. […] The sensitivity towards SC144 was time- and dose-dependent.
# (§2) Cytotoxicity was assessed by a 3-(4,5-dimethylthiazol-2-yl)-2,5-diphenyltetrazolium bromide assay as previously described (Carmichael et al. (1987) Cancer Res. 47:936-42). Briefly, cells were seeded in 96-well microtiter plates (PC3 and DU145 at 5,000 cells/well and LNCaP at 10,000 cells/well; breast and ovarian cells at 4,000 cells/well) and allowed to attach. Cells were subsequently treated with a continuous exposure to the corresponding drug for 72 hours. A 3-(4,5-dimethylthiazol-2-yl)-2,5-diphenyltetrazolium bromide solution (at a final concentration of 0.5 mg/mL) was added to each well and cells were incubated for 4 hours at 37° C. After removal of the medium, DMSO was added and the absorbance was read at 570 nm. All assays were done in triplicate. The IC50 was then determined for each drug from a plot of log(drug concentration) versus percentage of cell kill.
# [4] = tested on: DU145 prostate cancer cells; experiment: MTT cytotoxicity assay, DU145; assay type: cell-based; conditions: Homo sapiens, DU-145, 72 hours continuous exposure, read-out: IC50 values (mean ± SD)
# Method: as §1, §2
# HEY ovarian cancer cells = experiment: MTT cytotoxicity assay, HEY; assay type: cell-based, human; conditions: Homo sapiens; HEY; 72 hours continuous exposure; read-out: IC50 values (mean ± SD)
# Method: as §1, §2
# [5] = tested on: MCF-7 breast cancer cells; experiment: MTT cytotoxicity assay, MCF-7; assay type: cell-based, human; conditions: Homo sapiens, MCF7; MCF-7; 72 hours continuous exposure; read-out: IC50 values (mean ± SD)
# Method: as §1, §2
# [6] = tested on: MDA-MB-435 breast cancer cells; experiment: MTT cytotoxicity assay, MDA-MB-435; assay type: cell-based, human; conditions: for IC50: Homo sapiens
# Method: as §1, §2
# (§3) Cytotoxicity was assessed by a 3-(4,5-dimethylthiazol-2-yl)-2,5-diphenyltetrazolium bromide (MTT) assay as previously described.^9 Briefly, cells were seeded in 96-well microtiter plates and allowed to attach. Cells were subsequently treated with continuous exposure to the corresponding drug for 72 h. An MTT solution (at a final concentration of 0.5 mg/mL) was added to each well, and cells were incubated for 4 h at 37° C. After removal of the medium, DMSO was added and the absorbance was read at 570 nm. All assays were done in triplicate. The IC50 was then determined for each drug from a plot of log (drug concentration) versus percentage of cells killed.
# [7] = tested on: MDA-MB-468 breast cancer cells; experiment: MTT cytotoxicity assay, MDA-MB-468; assay type: cell-based; conditions: Homo sapiens, 72 hours continuous exposure, read-out: IC50 values (mean ± SD)
# Method: as §1, §2
# [8] = tested on: LNCaP prostate cancer cells; experiment: MTT cytotoxicity assay, LNCaP; assay type: cell-based; conditions: Homo sapiens
# Method: as §2, §3
# MDA-MB-435 cells [9] = experiment: Annexin V/PI apoptosis analysis, SC144 and CPT; assay type: cell-based, human; conditions: 48 h; IC80
# Excerpt: Cells were stained with annexin V/PI and analyzed by flow cytometry. Cells in the bottom left quadrant of each panel (Annexin V-negative, PI-negative) are viable, whereas cells in the bottom right quadrant (Annexin V-positive, PI-negative) are in the early stages of apoptosis, and cells in the top right quadrant (Annexin V-positive, PI-positive) are in later stages of apoptosis and necrosis.
# (§4) An early event in apoptotic cell death is the translocation of the phosphatidyl-serine residues to the outer part of the cell membrane. This event precedes nuclear breakdown, DNA fragmentation, the appearance of most apoptosis-associated molecules, and is readily measured by annexin V binding assay. By this method, SC144 was compared with CPT.
# PC3 and DU145 cells = experiment: Apoptosis by sub-G0/G1 population (flow cytometry); assay type: cell-based, human; conditions: IC80 dose for 72 hours
# Method: Apoptotic cell population increased with time in PC3 and DU145 treated with SC21 and CPT.
# as §4, with “SC21 and CPT-induced apoptosis was measured by flow cytometry (FIG. 18). SC21 at an IC80 dose for 72 hours induced 12% to 15% apoptosis as measured by calculating sub-G0/G1 population. […] An” for “An”, “region” for “part”, “we” for “SC144 was”, “compared SC21” for “compared”
# DU145 cells = experiment: Annexin V/propidium iodide apoptosis assay, DU145; assay type: cell-based, human; conditions: 72 hours exposure, IC80
# Method: FIG. 19 illustrates apoptosis analysis of DU145 cells treated with SC21 or CPT (IC80). Cells were treated with SC21 or CPT for 24, 48, and 72 h, harvested, stained with annexin V/propidium iodide and analyzed by flow cytometry. Untreated control cells (24 and 48 h) were also included in the analysis. Annexin VFITC signals are recorded in FL1-H or […] and propidium iodide in FL2-H or […]. Cells in the bottom left quadrant (annexin V-negative, propidium iodide-negative) are viable, whereas cells in the right quadrant (annexin V-positive, propidium iodide-negative) are in the early stages of apoptosis, and the cells in the top right quadrant (annexin V-positive, propidium iodide-positive) are in later stages of apoptosis and necrosis.
# To quantify drug-induced apoptosis, annexin V/propidium iodide staining was done followed by flow cytometry. […] The resulting fluorescence (FLH-1 channel for green fluorescence and FLH-2 channel for red fluorescence) was measured by flow cytometry using a FACScan flow cytometer (Becton Dickinson).
# SC21 and CPT-induced apoptosis was measured by flow cytometry (FIG. 18). SC21 at an IC80 dose for 72 hours induced 12% to 15% apoptosis as measured by calculating sub-G0/G1 population. […] This event precedes nuclear breakdown, DNA fragmentation, the appearance of most apoptosis-associated molecules, and is readily measured by annexin V binding assay. […]
# human CYP3A4 = human CYP3A4 (Homo sapiens, UniProt P08684); experiment: Inhibition of human cDNA-expressed CYP3A4 (BFC metabolism); assay type: in vitro ADME; conditions: BFC substrate, 37° C.
# Method: The metabolism of fluorescent substrates by human cDNA-expressed CYP3A4 was assessed by incubation in 96 well plate at 37° C. Metabolism of 7-benzyloxy-4-trifluoromethylcoumarin (BFC) was assayed by measuring the production of the corresponding 7-hydroxy-4-trifluoro-methylcoumarin.
# The investigation of cytochrome P450 enzyme inhibition by potential drug candidates can aid in predicting drug-drug interactions and/or unfavorable PK profiles produced upon dosing.
# CEM or HEY cells = experiment: Cytotoxicity of salicylhydrazides (Table 5); assay type: cell-based; conditions: Homo sapiens
# Excerpt: Human prostate cancer cells (PC3, p53 null, AR−; DU145, p53 mutant, AR−; and LNCaP, p53 wild-type, AR+) and breast cancer cells (MCF-7, overexpressed wild-type p53, ER+; MDA-MB-468, p53 mutant, […]; and MDA-MB-435, p53 mutant, ER−) were obtained from American Type Cell Culture (Manassas, Va.). The human ovarian carcinoma cell line (HEY) naturally resistant to cisplatin (CDDP) was kindly provided by Dr. Dubeau (University of Southern California Norris Cancer Center; Buick et al. (1985) Cancer Res. 45:3668-76 and Hamaguchi et al. (1993) Cancer Res. 53:5225-32). The results with CEM cells were previously described (Neamati et al. (1998) J. Med. Chem. 41:3202-9). Cells were maintained as monolayer cultures in RPMI 1640 supplemented with 10% fetal bovine serum (Gemini-Bioproducts, Woodland, Calif.) and 2 mmol/L L-glutamine at 37° C. in a humidified atmosphere of 5% CO2. To remove the adherent cells from the flask for passaging and counting, cells were washed with PBS without calcium or magnesium, incubated with a small volume of 0.25% trypsin-EDTA solution (Sigma-Aldrich, St. Louis, Mo.) for 5 to 10 minutes, and washed with culture medium and centrifuged. All experiments were done using cells in exponential cell growth.
# as §2
# [10] = tested on: HCT 116 p53^+/+ colon cancer cells; experiment: MTT cytotoxicity assay, HCT 116 p53+/+; assay type: cell-based, human; conditions: Homo sapiens, 72 h
# Excerpt: (§5) Human breast cancer cells MDA-MB-435 and colon cancer HT29, p53 mutant were purchased from the American Type Cell Culture (Manassas, Va.). The HCT116 P53^+/+ and HCT116 P53^−/− cells were kindly provided by Dr. Bert Vogelstein (Johns Hopkins Medical Institutions, Baltimore, Md.). Human prostate cancer cells, LNCaP, were kindly provided by Richard Cote (University of Southern California Keck School of Medicine). Cells were maintained as monolayer cultures in RPMI 1640 media supplemented with 10% fetal bovine serum (Gemini-Bioproducts, Woodland, Calif.) and 2 mmol/L L-glutamine at 37° C. in a humidified atmosphere of 5% CO2. To remove the adherent cells from the flask for passaging and counting, cells were washed with PBS without calcium or magnesium, incubated with a small volume of 0.25% trypsin-EDTA solution (Sigma-Aldrich, St. Louis, Mo.) for 5-10 min, and washed with culture medium and centrifuged. All experiments were performed using cells at exponential growth stage. Cells were routinely checked for mycoplasma contamination using a PCR-based assay (Stratagene, Cambridge, UK).
# as §3
# [11] = tested on: HCT 116 p53^−/− colon cancer cells; experiment: MTT cytotoxicity assay, HCT 116 p53-/-; assay type: cell-based, human; conditions: Homo sapiens, 72 h
# Excerpt: as §5, §3
# HT29 colon cancer cells = experiment: MTT cytotoxicity assay, HT 29; assay type: cell-based, human; conditions: Homo sapiens, 72 h
# Excerpt: as §5, §3
# [12] = tested on: human cancer cell lines (MDA-MB-435 and three colon cancer cells); experiment: MTT assay, panel of breast, colon and prostate cell lines (Example V); assay type: cell-based
# Method: All new compounds were tested in four human cancer cell lines, a breast cancer cell, MDA-MB-435, and three colon cancer cells.
# as §3
# cancer cells = experiment: Colony formation assay; assay type: cell-based; conditions: doses ≧1 uM; hydrochloride
# Method: FIG. 32. […] (A) The IC50 values of SC161′ range from 0.3 to 4 uM in representative breast, colon, and prostate cell lines using MTT assay.
# Colony formation assays were also performed to confirm the activity of these compounds as described.^10 Briefly, cells were plated in 6-well plates at a density of 100 cells/well and allowed to attach. The next day, serial dilutions of the corresponding compounds were added and allowed to incubate for 24 h. After exposure, cells were washed in PBS and cultured in free media until colonies were formed (8-10 days). Cells were subsequently washed, fixed with a 1% glutaraldehyde solution for 30 min, and stained with a solution of crystal violet (2%) for 30 min. After staining, cells were thoroughly washed with water. Colonies were imaged on the Versa-Doc Imaging System (Bio-Rad) and counted using the Quantity One quantitation software package (Bio-Rad). The data reported represent means of at least three independent experiments.
# [13] = 72 hours continuous exposure, read-out: IC50 values (mean ± SD)
# [14] = hLNCaP, MTT, 72 h, read-out: IC50
# Sequence of human CYP3A4 (P08684 whole entry): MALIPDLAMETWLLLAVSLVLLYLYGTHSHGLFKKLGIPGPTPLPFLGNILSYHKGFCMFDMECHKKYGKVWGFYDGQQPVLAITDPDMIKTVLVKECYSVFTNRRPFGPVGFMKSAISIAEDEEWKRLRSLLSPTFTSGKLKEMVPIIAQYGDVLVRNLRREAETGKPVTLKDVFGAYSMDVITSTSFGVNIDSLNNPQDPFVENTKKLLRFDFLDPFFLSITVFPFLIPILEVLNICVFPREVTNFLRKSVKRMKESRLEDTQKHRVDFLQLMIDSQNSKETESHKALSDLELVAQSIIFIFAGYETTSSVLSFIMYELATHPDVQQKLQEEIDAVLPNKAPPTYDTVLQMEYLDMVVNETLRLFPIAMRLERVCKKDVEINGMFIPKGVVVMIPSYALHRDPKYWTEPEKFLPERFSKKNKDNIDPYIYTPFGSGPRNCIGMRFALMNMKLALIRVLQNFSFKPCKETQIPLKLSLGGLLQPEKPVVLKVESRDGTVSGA
compound,measurement,setting,value
O=c1[nH]cc(F)c(=O)[nH]1 [5-Fluorouracil],CC50,"MDA-MB-435 cells [1]; Homo sapiens, MDA-MB-435",29000 ± 10700 nM
same,IC80,MDA-MB-435 cells [1]; Homo sapiens,100000 ± 10 nM
same,Cell cycle profile,[2],S-phase
"CC[C@@]1(O)C(=O)OCc2c1cc1n(c2=O)Cc2cc3ccccc3nc2-1 [CPT, Camptothecin, reference compound]",IC50,[3],900 ± 210 nM
same,IC50,[4],25 ± 7 nM
same,IC50,HEY ovarian cancer cells,35 ± 7 nM
same,IC50,[5],30 ± 3 nM
same,IC50,[6]; [13],27 ± 2 nM
same,IC50,[7],100 ± 2 nM
same,IC50,[8]; [13],25 ± 6 nM
same,CC50,"MDA-MB-435 cells [1]; Homo sapiens, MDA-MB-435",30 ± 2 nM
same,IC80,MDA-MB-435 cells [1]; Homo sapiens,100 ± 2 nM
same,early-apoptotic cells,MDA-MB-435 cells [9],34%
same,late-apoptosis/necrosis,MDA-MB-435 cells [9],39%
same,apoptosis (sub-G0/G1 population),PC3 and DU145 cells,30%
same,early plus late apoptotic cells,DU145 cells,59%
C=C/C=C(\C(=C)O)C(=O)N1N=C(C)/C(=C\c2cccc(O)c2)C1=O [SC24],CC50,MDA-MB-435 cells [1],240 ± 30 nM
same,IC80,MDA-MB-435 cells [1]; Homo sapiens,970 nM
same,inhibition of CYP3A4 activity,human CYP3A4,does not significantly inhibit CYP3A4 activity
same,IC50,CEM or HEY cells,130 nM
"O=C(NNc1nc2ccccc2n2cccc12)C1CSCN1 (stereo not shown) [SC153, Thiazolidine-4-carboxylic acid N′-pyrrolo[1,2-a]quinoxalin-4-yl-hydrazide]",activity against the breast cancer line,[6],inactive
same,IC50,"[6]; MTT, 72 h, read-out: IC50",> 20000 nM
same,IC50,[10],15000 ± 3000 nM
same,IC50,[11],10000 ± 2000 nM
same,IC50,HT29 colon cancer cells,14000 ± 1000 nM
same,activity against colon cancer lines,[12],moderately active
same,melting point,,162 °C
"NC(CC(=O)NNc1nc2ccccc2n2cccc12)c1ccccc1Cl (stereo not shown) [SC160, 3-Amino-3-(2-chloro-phenyl)-propionic acid N′-pyrrolo[1,2-a]quinoxalin-4-yl-hydrazide]",IC50,"[6]; MTT, 72 h, read-out: IC50",> 20000 nM
same,IC50,[8]; [14],> 20000 nM
same,IC50,[10],> 20000 nM
same,IC50,[11],> 20000 nM
same,IC50,HT29 colon cancer cells,17000 nM
"NC(CC(=O)NNc1nc2ccccc2n2cccc12)c1ccc(Cl)cc1 (stereo not shown) [SC161, 3-Amino-3-(4-chloro-phenyl)-propionic acid N′-pyrrolo[1,2-a]quinoxalin-4-yl-hydrazide]",IC50,"[6]; MTT, 72 h, read-out: IC50",3000 ± 2000 nM
same,IC50,[8]; [14],400 nM
same,IC50,[10],400 ± 10 nM
same,IC50,[11],300 ± 70 nM
same,IC50,HT29 colon cancer cells,300 ± 60 nM
"O=C(NNc1nc2cccc(F)c2n2cccc12)c1cnccn1 [SC161′, N′-(9-Fluoropyrrolo[1,2-a]quinoxalin-4-yl)pyrazine-2-carbohydrazide hydrochloride]",activity in all cell lines,[12],highly active
same,IC50,"[12]; Homo sapiens, MDA-MB-435, representative breast, colon, and prostate cell lines, MTT assay, read-out: IC50 values range",300 to 4000 nM
same,colony formation,cancer cells,completely blocks colony formation; also recorded: completely abolished cell growth
